Tests used:
[1] = molecular target: T1, AXL (Homo sapiens, UniProt P30530); assay: TR-FRET kinase activity assay, AXL; assay type: biochemical; conditions: ATP at Km, 60 minutes
T1 sequence (P30530 26-894): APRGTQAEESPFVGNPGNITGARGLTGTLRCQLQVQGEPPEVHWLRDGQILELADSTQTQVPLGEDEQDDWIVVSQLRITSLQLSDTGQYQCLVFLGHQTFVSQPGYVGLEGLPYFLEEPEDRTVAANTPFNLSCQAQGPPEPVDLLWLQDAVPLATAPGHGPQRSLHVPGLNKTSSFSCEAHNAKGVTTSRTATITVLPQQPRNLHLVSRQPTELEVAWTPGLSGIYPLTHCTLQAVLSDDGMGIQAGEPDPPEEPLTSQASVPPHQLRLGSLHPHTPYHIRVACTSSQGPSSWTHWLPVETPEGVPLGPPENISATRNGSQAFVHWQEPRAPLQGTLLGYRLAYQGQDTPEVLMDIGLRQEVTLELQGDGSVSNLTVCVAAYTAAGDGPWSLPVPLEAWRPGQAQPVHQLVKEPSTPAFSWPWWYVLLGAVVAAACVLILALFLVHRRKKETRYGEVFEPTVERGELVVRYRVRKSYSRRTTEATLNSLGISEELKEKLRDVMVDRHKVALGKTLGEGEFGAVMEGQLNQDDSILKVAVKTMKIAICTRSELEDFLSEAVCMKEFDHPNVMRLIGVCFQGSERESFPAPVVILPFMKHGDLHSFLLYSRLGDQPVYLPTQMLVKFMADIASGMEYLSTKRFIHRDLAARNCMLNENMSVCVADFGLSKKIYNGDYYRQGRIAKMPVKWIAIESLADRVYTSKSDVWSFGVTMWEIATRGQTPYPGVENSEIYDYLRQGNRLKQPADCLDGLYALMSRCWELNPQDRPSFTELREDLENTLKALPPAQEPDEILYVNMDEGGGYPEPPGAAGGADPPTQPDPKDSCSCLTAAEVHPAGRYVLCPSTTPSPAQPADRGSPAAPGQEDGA
Procedure: (§1) IC50 values for compound inhibition of AXL, FLT3, MERTK and TYRO3 activity were determined using a TR-FRET activity assay. A peptide substrate with a fluorescent label is phosphorylated on a tyrosine by each enzyme, where the now phosphorylated product is bound by a Europium-labeled antibody specific to that phosphorylation site. The proximity between the antibody and the substrate gives a signal known as TR-FRET. As the enzyme is inhibited by compound, less phosphorylated peptide product is made, causing a decrease in overall signal.
(§2) Activity assays were performed in a 384-well, small volume, black microplates in an active enzyme volume of 10 uL and final developed volume of 20 uL. Final assay conditions are 50 mM HEPES pH 7.5, 10 mM MgCl2, 1 mM EGTA, 0.01% Brij 35 and 1 mM DTT, all at RT. Enzyme, substrate-labeled peptide and compound are mixed, and then the reaction is initiated with the addition of ATP at Km concentration for each enzyme. The reaction is allowed to run 60 minutes and then quenched with a 12.5 mM EDTA (ethylenediamine tetraacetic acid) solution. The plate is then developed with the addition of Europium-labeled antibody for a final volume of 20 uL and is then incubated for 30 minutes in darkness. Plates are read in a PHERASTAR® plate reader. Data are analyzed in GraphPad PRISM.

[2] = molecular target: T2, TYRO3 (Homo sapiens, UniProt Q06418); assay: TR-FRET kinase activity assay, TYRO3; assay type: biochemical; conditions: ATP at Km, 60 minutes
T2 sequence (Q06418 41-890): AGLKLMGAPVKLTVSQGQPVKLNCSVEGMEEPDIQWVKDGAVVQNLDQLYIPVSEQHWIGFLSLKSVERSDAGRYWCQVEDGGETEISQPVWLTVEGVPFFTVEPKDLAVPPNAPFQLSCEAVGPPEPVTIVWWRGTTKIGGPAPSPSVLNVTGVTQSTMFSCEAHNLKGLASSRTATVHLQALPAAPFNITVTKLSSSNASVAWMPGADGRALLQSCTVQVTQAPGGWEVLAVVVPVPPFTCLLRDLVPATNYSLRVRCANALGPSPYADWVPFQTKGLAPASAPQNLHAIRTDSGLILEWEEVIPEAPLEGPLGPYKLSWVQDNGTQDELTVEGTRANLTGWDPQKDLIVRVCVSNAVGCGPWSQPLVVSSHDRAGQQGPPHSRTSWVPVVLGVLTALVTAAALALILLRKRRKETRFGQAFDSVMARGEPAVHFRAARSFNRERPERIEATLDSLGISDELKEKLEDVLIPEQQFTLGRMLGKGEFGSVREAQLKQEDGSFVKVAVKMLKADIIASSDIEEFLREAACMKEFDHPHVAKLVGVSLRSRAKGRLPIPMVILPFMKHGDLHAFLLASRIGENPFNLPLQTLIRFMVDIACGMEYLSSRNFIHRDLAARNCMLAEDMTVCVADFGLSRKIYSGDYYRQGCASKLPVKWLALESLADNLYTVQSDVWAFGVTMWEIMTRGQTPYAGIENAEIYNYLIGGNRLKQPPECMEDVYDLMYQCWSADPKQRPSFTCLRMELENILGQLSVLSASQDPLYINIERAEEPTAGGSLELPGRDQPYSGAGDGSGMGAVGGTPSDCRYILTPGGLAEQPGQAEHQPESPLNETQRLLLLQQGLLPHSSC
Procedure: as §1, §2

Compound | IC50 [1] | IC50 [2]
COC[C@H](C)Nc1ncc2c(OC3CCOCC3)ncc(C3CCC4(CC3)OCCO4)c2n1 [Compound 243] | 1000 to 10000 nM | 1000 to 10000 nM
CCOc1ncc(CC2CCN(C(=O)OC(C)(C)C)CC2)c2nc(N[C@@H](C)CC)ncc12 [Compound 254] | 1000 to 10000 nM | 1000 to 10000 nM
O[C@H]1CC[C@H](c2cnc(OC3CCNCC3)c3cnc(Nc4cccc(F)c4)nc32)CC1 [Compound 270] | ≤ 100 nM | ≤ 100 nM
CC[C@H](C)Nc1ncc2c(=O)n(C[C@@H]3COCCN3C)cc([C@H]3CC[C@H](O)CC3)c2n1 [Compound 263] | 100 to 1000 nM | 100 to 1000 nM
CCOc1ncc([C@H]2CC[C@H](O)CC2)c2nc(N[C@@H](C)COC)ncc12 [Compound 273] | 100 to 1000 nM | 100 to 1000 nM
CCCCC[C@H](C)Nc1ncc2c(=O)n(C3CCOCC3)cc([C@H]3CC[C@H](O)CC3)c2n1 [Compound 108] | 100 to 1000 nM | ≤ 100 nM
CC[C@H](C)Nc1ncc2c(NC34CCC(O)(CC3)CC4)ncc([C@H]3CC[C@H](O)CC3)c2n1 [Compound 238] | 100 to 1000 nM | 1000 to 10000 nM
O[C@H]1CC[C@H](c2cnc(OC3CCNCC3)c3cnc(Nc4ccccc4F)nc32)CC1 [Compound 262] | 100 to 1000 nM | ≤ 100 nM
CC[C@H](C)Nc1ncc2c(OCC34CCC(O)(CC3)CC4)ncc([C@H]3CC[C@H](O)CC3)c2n1 [Compound 256] | 1000 to 10000 nM | 100 to 1000 nM
CC[C@H](C)Nc1ncc2c(OC3CC(C)(C)NC(C)(C)C3)ncc([C@H]3CC[C@H](O)CC3)c2n1 [Compound 246] | 100 to 1000 nM | ≤ 100 nM
Cc1ccc(Cl)cc1Nc1ncc2c(OC3CCNCC3)ncc([C@H]3CC[C@H](O)CC3)c2n1 [Compound 209] | 1000 to 10000 nM | ≤ 100 nM
Cc1cc(Cl)ccc1Nc1ncc2c(OC3CCNCC3)ncc([C@H]3CC[C@H](O)CC3)c2n1 [Compound 198] | 1000 to 10000 nM | ≤ 100 nM
CCCCNc1cc2c(cn1)c(OC1CCNCC1)ncc2[C@H]1CC[C@H](O)CC1 [Compound 107] | ≤ 100 nM | ≤ 100 nM
CCCC(C)Nc1ncc2c(O[C@@H]3CCCN(C)C3)ncc([C@H]3CC[C@H](O)CC3)c2n1 (some centres unmarked) [Compound 214] | 1000 to 10000 nM | ≤ 100 nM
CC(C)Nc1ncc2c(OC3CCOCC3)ncc(-c3cccc(CC(=O)O)c3)c2n1 [Compound 276] | 1000 to 10000 nM | 100 to 1000 nM
COC[C@H](C)Nc1ncc2c(O[C@H]3CC[C@H](O)CC3)ncc([C@H]3CC[C@H](O)CC3)c2n1 [Compound 260] | 100 to 1000 nM | ≤ 100 nM
CC(C)(C)Nc1ncc2c(OC3CCNCC3)ncc([C@H]3CC[C@H](O)CC3)c2n1 [Compound 268] | 100 to 1000 nM | 100 to 1000 nM
O[C@H]1CC[C@H](c2cnc(OC3CCNCC3)c3cnc(N[C@@H]4CCOC4)nc32)CC1 [Compound 213] | 100 to 1000 nM | 100 to 1000 nM
CC[C@H](C)Nc1ncc2c(O[C@H]3CC[C@H](C(C)(C)O)CC3)ncc([C@H]3CC[C@H](O)CC3)c2n1 [Compound 261] | 100 to 1000 nM | 100 to 1000 nM
CC[C@H](C)Nc1ncc2c(OCC(F)(F)F)ncc([C@H]3CC[C@H](O)CC3)c2n1 [Compound 245] | 100 to 1000 nM | ≤ 100 nM

Continued, values first:

IC50 [1] | IC50 [2] | Compound
≤ 100 nM | ≤ 100 nM | O[C@H]1CC[C@H](c2cnc(OC3CCNCC3)c3cnc(Nc4ccc(F)cc4)nc32)CC1 [Compound 269]
100 to 1000 nM | ≤ 100 nM | CC[C@H](C)Nc1ncc2c(=O)n([C@H]3CC[C@H](N(C)C)C3)cc([C@H]3CC[C@H](O)CC3)c2n1 [Compound 266]
1000 to 10000 nM | 100 to 1000 nM | CC[C@H](C)Nc1ncc2c(OC3C[C@@H](C)O[C@@H](C)C3)ncc([C@H]3CC[C@H](O)CC3)c2n1 (some centres unmarked) [Compound 275]
100 to 1000 nM | ≤ 100 nM | CC[C@H](C)Nc1ncc2c(OC3CCN(C)CC3)ncc([C@H]3CC[C@H](O)CC3)c2n1 [Compound 239]
100 to 1000 nM | 100 to 1000 nM | CCC[C@@H](C)Nc1ncc2c(OC3CCN(C)CC3)ncc([C@H]3CC[C@H](O)CC3)c2n1 [Compound 208]
≤ 100 nM | ≤ 100 nM | CC[C@H](C)Nc1ncc2c(C)ncc([C@H]3CC[C@H](O)CC3)c2n1 [Compound 255]
1000 to 10000 nM | 100 to 1000 nM | COC[C@H](C)Nc1ncc2c(OC3CCOCC3)ncc(C3=CCC4(CC3)OCCO4)c2n1 [Compound 242]
100 to 1000 nM | > 10000 nM | CC[C@@H](C)Nc1ncc2c(OC3CCN(C)CC3)ncc([C@H]3CC[C@H](O)CC3)c2n1 [Compound 195]
100 to 1000 nM | ≤ 100 nM | CC[C@H](C)Nc1ncc2c(=O)n(C3CCOCC3)cc([C@H]3CC[C@H](O)CC3)c2n1 [Compound 225]
100 to 1000 nM | 100 to 1000 nM | O[C@H]1CC[C@H](c2cnc(OC3CCNCC3)c3cnc(N[C@@H]4CCCOC4)nc32)CC1 [Compound 232]
1000 to 10000 nM | 1000 to 10000 nM | O[C@H]1CC[C@H](c2cnc(OC3CCOCC3)c3cnc(N[C@H]4CCNC4)nc32)CC1 [Compound 277]
1000 to 10000 nM | 100 to 1000 nM | CCOc1ncc(CC2CCN(C)CC2)c2nc(N[C@@H](C)CC)ncc12 [Compound 253]
100 to 1000 nM | ≤ 100 nM | CC(C)CNc1ncc2c(OC3CCNCC3)ncc([C@H]3CC[C@H](O)CC3)c2n1 [Compound 212]
1000 to 10000 nM | 100 to 1000 nM | O[C@H]1CC[C@H](c2cnc(OC3CCNCC3)c3cnc(N[C@H]4CCCOC4)nc32)CC1 [Compound 216]
100 to 1000 nM | 100 to 1000 nM | CC[C@H](C)Nc1ncc2c(OC3CCOCC3)ncc([C@H]3CC[C@H](O)CC3)c2n1 [Compound 226]
1000 to 10000 nM | ≤ 100 nM | CC[C@H](C)Nc1ncc2c(OC(CO)CO)ncc([C@H]3CC[C@H](O)CC3)c2n1 [Compound 241]
≤ 100 nM | 100 to 1000 nM | CC[C@H](C)Nc1ncc2c(NC3CCN(C)CC3)ncc([C@H]3CC[C@H](O)CC3)c2n1 [Compound 220]
1000 to 10000 nM | 100 to 1000 nM | C[C@@H](Nc1ncc2c(OC3CCNCC3)ncc([C@H]3CC[C@H](O)CC3)c2n1)c1ccccc1 [Compound 218]
100 to 1000 nM | 100 to 1000 nM | CC[C@H](C)Nc1ncc2c(O[C@H]3CC[C@H](O)CC3)ncc([C@H]3CC[C@H](O)CC3)c2n1 [Compound 229]
1000 to 10000 nM | 100 to 1000 nM | CC[C@H](C)Nc1ncc2c(=O)n(-c3ccc(N)cc3)cc([C@H]3CC[C@H](O)CC3)c2n1 [Compound 271]

Source: patent publication US20200291018A1, “TAM KINASE INHIBITORS” (SYROS PHARMACEUTICALS, INC., priority 2017, published 2020)
